pIC50: −log10 of the molar value.
Target: T1, Human 5-lipoxygenase (Homo sapiens, UniProt P09917)
T1 construct: purchased Cayman 60402; host or cells: insect cells
T1 sequence (P09917 1-674): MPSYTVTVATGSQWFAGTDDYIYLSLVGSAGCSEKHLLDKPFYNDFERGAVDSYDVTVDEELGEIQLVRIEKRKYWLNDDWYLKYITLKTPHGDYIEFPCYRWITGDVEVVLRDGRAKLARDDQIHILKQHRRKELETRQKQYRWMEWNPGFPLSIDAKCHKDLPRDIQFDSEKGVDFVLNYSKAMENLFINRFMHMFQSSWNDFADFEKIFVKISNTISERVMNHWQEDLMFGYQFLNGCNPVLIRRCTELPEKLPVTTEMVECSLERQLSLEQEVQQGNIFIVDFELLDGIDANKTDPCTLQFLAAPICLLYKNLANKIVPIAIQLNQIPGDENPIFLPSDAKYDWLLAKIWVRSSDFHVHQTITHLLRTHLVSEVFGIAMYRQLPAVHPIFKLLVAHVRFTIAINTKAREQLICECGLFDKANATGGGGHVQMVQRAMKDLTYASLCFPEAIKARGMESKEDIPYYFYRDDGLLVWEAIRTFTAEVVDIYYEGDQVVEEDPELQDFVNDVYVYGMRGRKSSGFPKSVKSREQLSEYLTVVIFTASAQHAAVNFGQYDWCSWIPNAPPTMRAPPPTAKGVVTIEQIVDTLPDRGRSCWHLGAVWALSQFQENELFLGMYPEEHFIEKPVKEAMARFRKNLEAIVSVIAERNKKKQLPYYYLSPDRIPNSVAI
Assay: Activity of compounds against 5-LO enzyme (LTB4 measurement and/or fluorescence method)
Type: biochemical
Details: for pIC50: 6 or 11 point dose response in duplicate; for inhibition at 10 µM: 5-LO, single concentration of 10 uM in duplicate
Method in brief: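 Insect-cell human 5-LO preincubated 15 min at RT with compound (pH 7.4, 2 mM CaCl2, 0.1 mM ATP, 1% DMSO), then 3 uM arachidonic acid for 5 min at 37 °C; LTB4 quantified by EIA and/or LC/MS/MS. Alternatively, fluorescence of 5-HpETE via H2DCFDA, 100 uM ATP, 3 uM arachidonic acid, 5 min, RT; single 10 uM screen then 6- or 11-point IC50.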

| Structure (SMILES) | pIC50 | inhibition at 10 µM |
| --- | --- | --- |
| CCc1nc2ncccn2c1C(=O)N1CCC(OCc2ccc(OC(F)(F)F)cc2)CC1 [compound 385, (2-Ethylimidazo[1,2-a]pyrimidin-3-yl)(4-((4-(trifluoromethoxy)benzyl)oxy)piperidin-1-yl)methanone] | < 4.70 |  |
| CCc1nc2cc(Cl)ccn2c1C(=O)NCc1ccc(N2CCC(COC(C)C)CC2)cc1 [compound 277, 7-Chloro-2-ethyl-N-(4-(4-(isopropoxymethyl)piperidin-1-yl)benzyl)imidazo[1,2-a]pyridine-3-carboxamide] |  | < 40% |
| CCc1nc2ccc(Cl)cn2c1C(=O)NCc1ccc(OCc2ccc(F)cc2)cc1 [compound 172, 6-Chloro-2-ethyl-N-(4-(4-fluorobenzyloxy)benzyl)imidazo[1,2-a]pyridine-3-carboxamide] |  | < 40% |
| CCc1nc2cc(Cl)ccn2c1C(=O)NCc1ccc2[nH]c(CN3CCOCC3)nc2c1 [compound 196, 7-Chloro-2-ethyl-N-((2-(morpholinomethyl)-1H-benzo[d]imidazol-5-yl)methyl)imidazo[1,2-a]pyridine-3-carboxamide] |  | < 40% |
| CCc1nc2cc(Cl)ccn2c1C(=O)NCc1ccc(N2CC3CCCCC3C2)cc1 (stereo not shown) [compound 216, N-(4-(1H-isoindol-2(3H,3aH,4H,5H,6H,7H,7aH)-yl)benzyl)-7-chloro-2-ethylimidazo[1,2-a]pyridine-3-carboxamide] |  | 40 to 69% |
| CCc1nc2ccc(Cl)cn2c1C(=O)NCc1ccc(OCC(C)C)cc1 [compound 66] |  | < 40% |
| CCc1nc2cc(Cl)ccn2c1C(=O)NCc1ccn(-c2ccc(F)cc2)n1 [compound 154, 7-Chloro-2-ethyl-N-((1-(4-fluorophenyl)-1H-pyrazol-3-yl)methyl)imidazo[1,2-a]pyridine-3-carboxamide] |  | < 40% |
| CCc1nc2ccccn2c1C(=O)NCc1ccc(N2CCC(c3ccc(F)cc3)CC2)cc1 [compound 265, 2-Ethyl-N-(4-(4-(4-fluorophenyl)piperidin-1-yl)benzyl)imidazo[1,2-a]pyridine-3-carboxamide] | > 6.00 | > 69% |
| CCc1nc2cc(Cl)ccn2c1C(=O)NCc1ccc(-c2ccc(Cl)cc2)cc1 [compound 83, 7-Chloro-N-((4′-chlorobiphenyl-4-yl)methyl)-2-ethyl-2-ethlimidazo[1,2-a]pyridine-3-carboxamide] |  | 40 to 69% |
| CCc1nc2c(F)cccn2c1C(=O)NCc1ccc(OC(F)(F)F)cc1 [compound 282, 2-Ethyl-8-fluoro-N-(4-(trifluoromethoxy)benzyl)imidazo[1,2-a]pyridine-3-carboxamide] |  | < 40% |
| CCc1nc2ccc(Cl)cn2c1C(=O)NCc1ccc(N2CCC(NC(=O)c3ccc(F)cc3)CC2)cc1 [compound 318, 6-chloro-2-ethyl-N-(4-(4-(4-fluorobenzamido)piperidin-1-yl)benzyl)imidazo[1,2-a]pyridine-3-carboxamide] |  | < 40% |
| CCc1nc2ccc(Cl)cn2c1C(=O)NCc1ccc(N2CCCCCC2)cc1 [compound 192, N-(4-(Azepan-1-yl)benzyl)-6-chloro-2-ethylimidazo[1,2-a]pyridine-3-carboxamide] |  | 40 to 69% |
| CCc1nc2cc(Cl)ccn2c1C(=O)NCc1ccc(N2CCC(COC3CCCC3)CC2)cc1 [compound 286, 7-Chloro-N-(4-(4-(cyclopentyloxymethyl)piperidin-1-yl)benzyl)-2-ethylimidazo[1,2-a]pyridine-3-carboxamide] |  | 40 to 69% |
| CCc1nc2ccc(Cl)cn2c1C(=O)NCc1ccc(/C=C/c2ccc(F)cc2)cc1 [compound 329, (E)-6-chloro-2-ethyl-N-(4-(4-fluorostyryl)benzyl)imidazo[1,2-a]pyridine-3-carboxamide] |  | < 40% |

More lines, now with the values ahead:

| pIC50 | inhibition at 10 µM | Structure (SMILES) |
| --- | --- | --- |
|  | 40 to 69% | CCOC(=O)c1c(C)nc2ccc(-c3ccccc3)cn12 [compound 27, Ethyl 2-methyl-6-phenylimidazo[1,2-a]pyridine-3-carboxylate] |
|  | 40 to 69% | CCc1nc2cc(Cl)ccn2c1C(=O)NCc1ccn(-c2ccc(C(F)(F)F)cc2)n1 [compound 152, 7-Chloro-2-ethyl-N-((1-(4-(trifluoromethyl)phenyl)-1H-pyrazol-3-yl)methyl)imidazo[1,2-a]pyridine-3-carboxamide] |
| < 4.70 | > 69% | CCCCCNc1ccc(CNC(=O)c2c(CC)nc3cc(Cl)ccn23)cc1 [compound 110, 7-Chloro-2-ethyl-N-(4-(pentylamino)benzyl)imidazo[1,2-a]pyridine-3-carboxamide] |
|  | 40 to 69% | CCc1nc2cc(Cl)ccn2c1C(=O)NCc1ccc(-c2ccc(OC)cc2)cc1 [compound 113, 7-Chloro-2-ethyl-N-((4′-methoxybiphenyl-4-yl)methyl)imidazo[1,2-a]pyridine-3-carboxamide] |
|  | < 40% | CCc1nc2ccc(Cl)cn2c1C(=O)N1CCC(OCc2cccc(F)c2)CC1 [compound 336, (6-chloro-2-ethylimidazo[1,2-a]pyridin-3-yl)(4-((3-fluorobenzyl)oxy)piperidin-1-yl)methanone] |
|  | < 40% | CCc1nc2ccc(Cl)cn2c1C(=O)NCc1ccn(-c2ccc(C(F)(F)F)cc2)n1 [compound 151, 6-Chloro-2-ethyl-N-((1-(4-(trifluoromethyl)phenyl)-1H-pyrazol-3-yl)methyl)imidazo[1,2-a]pyridine-3-carboxamide] |
| > 6.00 | > 69% | CCc1nc2ccc(C)cn2c1C(=O)NCc1ccc(Oc2ccc(OC(F)(F)F)cc2)cc1 [compound 232, 2-Ethyl-6-methyl-N-(4-(4-(trifluoromethoxy)phenoxy)benzyl)imidazo[1,2-a]pyridine-3-carboxamide] |
|  | < 40% | CCc1nc2ccc(Cl)cn2c1C(=O)N1CCC(OCc2ccc(F)cc2)CC1 [compound 333, (6-chloro-2-ethylimidazo[1,2-a]pyridin-3-yl)(4-((4-fluorobenzyl)oxy)piperidin-1-yl)methanone] |
|  | 40 to 69% | CCc1nc2cc(Cl)ccn2c1C(=O)NCc1ccc(-c2ccccc2)cc1 [compound 91, N-(Biphenyl-4-ylmethyl)-7-chloro-2-ethylimidazo[1,2-a]pyridine-3-carboxamide] |
|  | < 40% | Cc1nc2cc(Cl)ccn2c1C(=O)NCc1ccc(-c2ccccc2)cc1 [compound 44, N-(Biphenyl-4-ylmethyl)-7-chloro-2-methylimidazo[2-a]pyridine-3-carboxamide] |
|  | 40 to 69% | CCOC(=O)c1c(C)nc2cc(-c3ccccc3)ccn12 [compound 18, Ethyl 2-methyl-7-phenylimidazo[1,2-a]pyridine-3-carboxylate] |
|  | < 40% | CCc1nc2ccc(Br)cn2c1C(=O)NCc1ccc(Oc2ccc(F)cc2)cc1 [compound 177, 6-Bromo-2-ethyl-N-(4-(4-fluorophenoxy)benzyl)imidazo[1,2-a]pyridine-3-carboxamide] |
|  | < 40% | CCc1nc2ccccn2c1CN1CCC(Cn2cc(C(O)(CC)C(F)(F)F)nn2)CC1 (stereo not shown) [compound 351, 2-(1-((1-((2-ethylimidazo[1,2-a]pyridin-3-yl)methyl)piperidin-4-yl)methyl)-1H-1,2,3-triazol-4-yl)-1,1,1-trifluorobutan-2-ol] |
|  | < 40% | CCc1nc2ccc(Cl)cn2c1C(=O)NCc1ccc(N2CCOCC2)cc1 [compound 64] |

From patent publication US9029389B2 (Institut Pasteur Korea, priority 2011, dated 2015)
